ChEMBL document CHEMBL1155400, “The design and development of 2-aryl-2-hydroxy ethylamine substituted 1H,7H-pyrido[1,2,3-de]quinoxaline-6-carboxamides as inhibitors of human cytomegalovirus polymerase” (Bioorg Med Chem Lett, 2010)
In brackets after ≈: the same amount, converted by molar mass.

Legend:
[1] = Inhibition of HCMV recombinant DNA polymerase expressed in baculovirus infected SF9 cells after 12 mins by scintillation proximity assay; design: species or system Human betaherpesvirus 5
[2] = system: Human betaherpesvirus 5; experiment: Antiviral activity against Human cytomegalovirus infected in HFF cells by plaque reduction assay; assay type: functional, organism-based; details: Human betaherpesvirus 5, HFF
[3] = Cytotoxicity against HFF cells after 3 days by […] dye uptake assay; assay type: cell-based; details: human
[4] = Aqueous solubility of the compound; assay type: physicochemical
[5] = system: Human alphaherpesvirus 3; experiment: Antiviral activity against Varicella zoster virus infected in HFF cells by plaque reduction assay; assay type: functional, organism-based; details: Human alphaherpesvirus 3, HFF
[6] = target: T1, DNA polymerase alpha catalytic subunit (Homo sapiens, UniProt P09884); experiment: Inhibition of human recombinant DNA polymerase alpha expressed in baculovirus infected SF9 cells after 12 mins by scintillation proximity assay
T1 sequence (P09884 whole entry): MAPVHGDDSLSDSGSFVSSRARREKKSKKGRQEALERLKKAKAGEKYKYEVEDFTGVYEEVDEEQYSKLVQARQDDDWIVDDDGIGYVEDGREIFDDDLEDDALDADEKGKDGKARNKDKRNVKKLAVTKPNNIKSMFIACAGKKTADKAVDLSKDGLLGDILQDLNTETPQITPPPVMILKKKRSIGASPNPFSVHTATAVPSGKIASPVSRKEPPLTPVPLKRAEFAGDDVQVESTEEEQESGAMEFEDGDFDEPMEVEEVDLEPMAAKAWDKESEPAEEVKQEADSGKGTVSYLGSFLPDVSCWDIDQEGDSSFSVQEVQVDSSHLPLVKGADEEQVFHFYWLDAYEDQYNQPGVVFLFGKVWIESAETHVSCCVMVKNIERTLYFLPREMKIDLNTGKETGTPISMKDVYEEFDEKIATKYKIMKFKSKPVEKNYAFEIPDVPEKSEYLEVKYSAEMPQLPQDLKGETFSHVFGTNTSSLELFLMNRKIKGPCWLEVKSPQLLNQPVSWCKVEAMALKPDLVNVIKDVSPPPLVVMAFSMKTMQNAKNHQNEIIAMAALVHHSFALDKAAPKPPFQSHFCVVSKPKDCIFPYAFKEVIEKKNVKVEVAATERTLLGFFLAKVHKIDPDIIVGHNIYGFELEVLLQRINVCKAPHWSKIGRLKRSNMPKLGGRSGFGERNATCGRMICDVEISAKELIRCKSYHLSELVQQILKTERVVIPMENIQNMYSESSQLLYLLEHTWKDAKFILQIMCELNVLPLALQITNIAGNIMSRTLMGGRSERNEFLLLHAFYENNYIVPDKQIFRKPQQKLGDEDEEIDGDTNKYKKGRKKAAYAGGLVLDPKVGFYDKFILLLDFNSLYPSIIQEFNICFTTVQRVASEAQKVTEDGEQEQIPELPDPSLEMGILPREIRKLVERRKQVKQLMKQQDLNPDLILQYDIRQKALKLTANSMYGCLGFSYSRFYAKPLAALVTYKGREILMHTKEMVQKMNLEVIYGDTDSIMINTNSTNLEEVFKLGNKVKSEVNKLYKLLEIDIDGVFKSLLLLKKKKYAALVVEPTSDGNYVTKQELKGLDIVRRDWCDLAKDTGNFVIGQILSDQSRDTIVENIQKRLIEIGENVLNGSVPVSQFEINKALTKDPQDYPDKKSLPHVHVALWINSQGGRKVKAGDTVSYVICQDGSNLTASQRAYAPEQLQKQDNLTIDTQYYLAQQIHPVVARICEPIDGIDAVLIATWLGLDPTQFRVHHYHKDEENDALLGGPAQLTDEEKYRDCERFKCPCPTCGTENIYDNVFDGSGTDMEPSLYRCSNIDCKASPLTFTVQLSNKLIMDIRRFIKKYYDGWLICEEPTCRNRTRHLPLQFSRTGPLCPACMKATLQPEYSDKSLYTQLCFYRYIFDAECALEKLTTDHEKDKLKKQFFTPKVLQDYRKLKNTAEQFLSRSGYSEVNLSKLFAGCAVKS

[7] = Inhibition of Varicella zoster virus recombinant DNA polymerase expressed in baculovirus infected SF9 cells after 12 mins by scintillation proximity assay; design: species or system Human alphaherpesvirus 3

SMILES	IC50 [1] [nM]	IC50 [2] [nM]	CC50 at 72 h [3] [nM]	other results
CN(Cc1cc2c3c(c1)c(=O)c(C(=O)NCc1ccc(Cl)cc1)cn3CC(=O)N2C)C[C@H](O)c1cccnc1	4550			
Cn1cc(C(=O)NCc2ccc(Cl)cc2)c(=O)c2cc(CCCO)sc21	400	600		
CN(Cc1cc2c3c(c1)c(=O)c(C(=O)NCc1ccc(Cl)cc1)cn3CC(=O)N2C)C[C@@H](O)c1ccccn1	300	20	> 15000	
CN(Cc1cc2c3c(c1)c(=O)c(C(=O)NCc1ccc(Cl)cc1)cn3CC(=O)N2C)C[C@@H](O)c1ccco1	110	10	> 15000	
CN(Cc1cc2c3c(c1)c(=O)c(C(=O)NCc1ccc(Cl)cc1)cn3CC(=O)N2C)C[C@H](O)c1cc2ccccc2o1	180	90	> 15000	
O=C(NCc1ccc(Cl)cc1)c1cn2c3c(cc(CN4CCOCC4)cc3c1=O)N(CCCO)C(=O)C2	1840			
Cn1cc(C(=O)NCc2ccc(Cl)cc2)c(=O)c2cc(CN3CCOCC3)ccc21	690	300		
CN(Cc1cc2c3c(c1)c(=O)c(C(=O)NCc1ccc(Cl)cc1)cn3CC(=O)N2C)C[C@@H](O)c1cccnc1	150	10	> 15000	
CN(Cc1cc2c3c(c1)c(=O)c(C(=O)NCc1ccc(Cl)cc1)cn3CC(=O)N2C)C[C@H](O)c1cnccn1	7700			
Nc1nc2c(ncn2COCCO)c(=O)[nH]1 [ACYCLOVIR]		20000		
CN(Cc1cc2c3c(c1)c(=O)c(C(=O)NCc1ccc(Cl)cc1)cn3CC(=O)N2C)C[C@H](O)c1ccccn1	5250			
CN(Cc1cc2c3c(c1)c(=O)c(C(=O)NCc1ccc(Cl)cc1)cn3CC(=O)N2C)CC(O)c1cc2ccccc2o1 (racemic)	8		> 15000	
CN(Cc1cc2c3c(c1)c(=O)c(C(=O)NCc1ccc(Cl)cc1)cn3CC(=O)N2C)C[C@@H](O)c1cnccn1	260	200		
CN(Cc1cc2c(=O)c(C(=O)NCc3ccc(Cl)cc3)cn(C)c2s1)C[C@@H](O)c1ccco1	35	7		solubility [4]: 0.19 µg/mL (≈ 0.391 µM)
CN(Cc1cc2c3c(c1)c(=O)c(C(=O)NCc1ccc(Cl)cc1)cn3CC(=O)N2C)CC(O)c1csc2ccccc12 (racemic)	97	100	> 15000	
CN1C(=O)Cn2cc(C(=O)NCc3ccc(Cl)cc3)c(=O)c3cc(CN4CCOCC4)cc1c32	620	100		IC50 [5]: 20 nM; solubility [4]: 8.6 µg/mL (≈ 17.9 µM); IC50 [6]: > 5000 nM; IC50 [7]: 180 nM
CN(Cc1cc2c3c(c1)c(=O)c(C(=O)NCc1ccc(Cl)cc1)cn3CC(=O)N2C)C[C@H](O)c1ccco1	4930			
CN(Cc1cc2c3c(c1)c(=O)c(C(=O)NCc1ccc(Cl)cc1)cn3CC(=O)N2C)C[C@@H](O)c1cc2ccccc2o1	4	1	> 15000	IC50 [5]: 4 nM; solubility [4]: 0.94 µg/mL (≈ 1.61 µM); IC50 [6]: > 5000 nM; IC50 [7]: 29 nM
CN(Cc1cc2c3c(c1)c(=O)c(C(=O)NCc1ccc(Cl)cc1)cn3CC(=O)N2C)C[C@H](O)c1ccccc1	9160			
CN(Cc1cc2c3c(c1)c(=O)c(C(=O)NCc1ccc(Cl)cc1)cn3CC(=O)N2C)C[C@H](O)c1nccs1	6200			
CN(Cc1cc2cc(CCO)n3cc(C(=O)NCc4ccc(Cl)cc4)c(=O)c(c1)c23)C[C@@H](O)c1cnccn1	14	10		solubility [4]: 17 µg/mL (≈ 31.1 µM)
CN(Cc1cc2c3c(c1)c(=O)c(C(=O)NCc1ccc(Cl)cc1)cn3CC(=O)N2C)C[C@@H](O)c1ccccc1	130	100	> 15000	
O=C(NCc1ccc(Cl)cc1)c1cn2c3c(cc(CN4CCOCC4)cc3c1=O)N(CCCN1CCOCC1)C(=O)C2	4410			
CN(Cc1cc2c3c(c1)c(=O)c(C(=O)NCc1ccc(Cl)cc1)cn3CC(=O)N2C)CC(O)c1ccc2ccccc2n1 (racemic)	42		> 15000	
CCN1C(=O)Cn2cc(C(=O)NCc3ccc(Cl)cc3)c(=O)c3cc(CN4CCOCC4)cc1c32	1280			
CN(Cc1cc2c3c(c1)c(=O)c(C(=O)NCc1ccc(Cl)cc1)cn3CC(=O)N2C)C[C@H](O)c1ccsc1	5720			
CN(Cc1cc2c3c(c1)c(=O)c(C(=O)NCc1ccc(Cl)cc1)cn3CC(=O)N2C)C[C@@H](O)c1nccs1	490	100		
CN(Cc1cc2c(=O)c(C(=O)NCc3ccc(Cl)cc3)cn(C)c2o1)C[C@@H](O)c1ccco1	76	26		
CN(Cc1cc2c3c(c1)c(=O)c(C(=O)NCc1ccc(Cl)cc1)cn3CC(=O)N2C)C[C@@H](O)c1ccsc1	190	100	> 15000	
O=C(NCc1ccc(Cl)cc1)c1cn2c3c(cc(CN4CCOCC4)cc3c1=O)N(CCO)C(=O)C2	830	700		
